Experimental data as given in patent US10662223B2, “Composition for organ, tissue, or cell transplantation, kit, and transplantation method” (GemVax & KAEL Co., Ltd., priority 2014, dated 2020).
“Also recorded” adds a separate entry of the source.

Key:
[1] = tested on: transplanted lung; experiment: Rat lung transplantation: analysis of bronchoalveolar lavage fluid (BAL); format: in vivo, Sprague-Dawley rat; settings: PERFADEX 50 mL + PEP1 5 mg
Experimental: (§1) The experiment was performed using two rats with the same gene, and lung transplantation was carried out by detaching the left lung from a donor rat and placing the donor's lung in the left thoracic cavity from which an original left lung was removed of the recipient rat. To basically prevent rejection, the rats had the same gene. Both the donor rat and recipient rat had weights of 300 to 350 g, and were the Sprague-Dawley species. Following the extraction of a lung from the donor rat, the lung was transplanted to the recipient rat through surgical procedures.
(§2) During perfusion, mechanical ventilation was continuously performed to allow uniform lung perfusion.
(§3) (4) Following the perfusion, trachea was ligated while the lung expanded under the endotracheal intubation, a heart-lung block was extracted, and then peripheral structures such as esophagus were removed on a cold petri-dish. The heart-lung block was weighed, and subjected to cold storage in a perfusion solution, which was the same as the lung perfusion solution. Ischemic duration was set three hours.
(§4) For the experiment, the lung transplant rats were divided into four groups. […]

[2] = tested on: MCP-1; experiment: Renal IR injury mouse model: MCP-1 level in renal tissue; format: in vivo, C57BL/6 mouse; settings: 24 hours after IR; 1000 nmol/kg 30 minutes before and 12 hours after IR; compared with PBS control group
Experimental: (§5) A renal JR injury mouse model was obtained by inducing IR by bilateral clamping renal pedicles for 30 minutes and restoring blood flow after 30 minutes by removing the clamps. Experimental groups were divided into three groups, which are an administered group (PEP 1), a control group (PBS: without PEP 1 administration), and a Sham group (no bilateral clamping). PEP 1 was subcutaneously injected at a concentration of 1000 nmol/kg 30 minutes before and 12 hours after the IR induction.
(§6) A C57BL/6 mouse (8-week-old; Charles River Laboratories, Wilmington, Mass.) was used to induce renal IR injury. The renal pedicles were clamped with vascular forceps to block blood flow, and ischemia was induced for […] in the renal IR injury model, followed by reperfusion.
(§7) The peptide PEP 1 was diluted with PBS to a concentration of 1000 nmol/kg, and then intraperitoneally injected twice, 30 minutes before and 12 hours after the IR.
(§8) Protein was extracted from renal tissue 24 hours after the IR, and IL-6, MCP-1 and TNF-α levels were measured by a cytometric bead array. Mouse IL-6, MCP-1, TNF-α, and an ELISA kit were purchased from R&D Systems, and the experiment was conducted according to the manufacturer's protocol.

[3] = tested on: macrophages and neutrophils in renal tissue; experiment: Renal IR injury mouse model: innate immune cell infiltration by immunohistochemistry (F4/80, Gr-1); format: in vivo, C57BL/6 mouse; settings: 24 hours after IR; 1000 nmol/kg 30 minutes before and 12 hours after IR; compared with PBS control group
Experimental: A renal JR injury mouse model was obtained by inducing IR by bilateral clamping renal pedicles for 30 minutes and restoring blood flow after 30 minutes by removing the clamps. Experimental groups were divided into three groups, which are an administered group (PEP 1), a control group (PBS: without PEP 1 administration), and a Sham group (no bilateral clamping). PEP 1 was subcutaneously injected at a concentration of 1000 nmol/kg 30 minutes before and 12 hours after the IR induction. A C57BL/6 mouse (8-week-old; Charles River Laboratories, Wilmington, Mass.) was used to induce renal IR injury. The renal pedicles were clamped with vascular forceps to block blood flow, and ischemia was induced for […] in the renal IR injury model, followed by reperfusion. The peptide PEP 1 was diluted with PBS to a concentration of 1000 nmol/kg, and then intraperitoneally injected twice, 30 minutes before and 12 hours after the IR. […] Infiltration of innate immune cells was evaluated by staining the renal tissue with a macrophage maker (F4/80) and a neutrophil maker (Gr-1) through immunohistochemistry 24 hours after the IR. Specifically, infiltrated macrophages and neutrophils were stained with a macrophage-specific antibody (F4/80, abcam., Cambridge, Mass.) by an immunochemical method performed on paraffin-containing sections.

[4] = tested on: renal tissue; experiment: Renal IR injury mouse model: TUNEL staining, renal apoptosis; format: in vivo, C57BL/6 mouse; settings: 24 hours after IR; 1000 nmol/kg 30 minutes before and 12 hours after IR; compared with PBS control group
Experimental: A renal JR injury mouse model was obtained by inducing IR by bilateral clamping renal pedicles for 30 minutes and restoring blood flow after 30 minutes by removing the clamps. Experimental groups were divided into three groups, which are an administered group (PEP 1), a control group (PBS: without PEP 1 administration), and a Sham group (no bilateral clamping). PEP 1 was subcutaneously injected at a concentration of 1000 nmol/kg 30 minutes before and 12 hours after the IR induction. A C57BL/6 mouse (8-week-old; Charles River Laboratories, Wilmington, Mass.) was used to induce renal IR injury. The renal pedicles were clamped with vascular forceps to block blood flow, and ischemia was induced for […] in the renal IR injury model, followed by reperfusion. The peptide PEP 1 was diluted with PBS to a concentration of 1000 nmol/kg, and then intraperitoneally injected twice, 30 minutes before and 12 hours after the IR. […] Renal apoptosis was evaluated by staining renal tissue with TUNEL stain 24 hours after the IR. Renal paraffin sections were stained with TUNEL using a TUNEL staining kit (Roche Applied Science, Indianapolis, Ind., USA).

[5] = tested on: TNF-α; experiment: Renal IR injury mouse model: TNF-α level in renal tissue; format: in vivo, C57BL/6 mouse; settings: 24 hours after IR; 1000 nmol/kg 30 minutes before and 12 hours after IR; compared with PBS control group
Experimental: as §5, §6, §7, §8

[6] = tested on: IL-6; experiment: Renal IR injury mouse model: IL-6 level in renal tissue; format: in vivo, C57BL/6 mouse; settings: 24 hours after IR; 1000 nmol/kg 30 minutes before and 12 hours after IR; compared with PBS control group
Experimental: as §5, §6, §7, §8

[7] = tested on: transplanted lung; experiment: Rat lung transplantation: wet/dry weight ratio (reperfusion edema); format: in vivo, Sprague-Dawley rat; settings: PERFADEX 50 mL + PEP1 5 mg; lower lobe of transplanted lung
Experimental: as §1, §2, §3, §4

[8] = tested on: abdominal skin flap; experiment: Flap IR injury rat model: flap survivability; format: in vivo, Sprague-Dawley Rat; settings: 7 days after IR induction; 10 mg/500 μl intramuscularly 30 minutes before and 1, 2, 3, 4, 5, and 7 days after IR; 7 hours ischemia
Experimental: Transplantation of a flap of the rectus abdominis was carried out as follows. An IR injury rat model was obtained by detaching a flap with a size of 5 cm×5 cm from abdominal skin of a white rat (Sprague-Dawley Rat, 180 to 230 g), adding PEP1 or saline to the rat, inducing ischemia through clamping, and restoring blood flow after 7 hours by removing the clamps (refer to FIG. 11).
Experimental groups were divided into three groups, which are an administered group (PEP 1), a control group (PBS without PEP 1), and a sham group (group in which no IR injury induced). PEP 1 (10 mg/500 μl) or saline (500 Id) was intramuscularly injected 30 minutes before and 1, 2, 3, 4, 5, and 7 days after the IR induction.
Flap survivability was measured 7 days after the IR induction. The flap survivability was measured through digital image analysis using imageJ program.

[9] = tested on: renal IR injury mouse model; experiment: Renal IR injury mouse model: blood urea nitrogen (BUN) and creatine; format: in vivo, C57BL/6 mouse; settings: 24 hours after IR; 1000 nmol/kg 30 minutes before and 12 hours after IR; compared with PBS control group
Experimental: as §5, §6, §7
Blood was taken 24 hours after the JR and the levels of blood urea nitrogen (BUN) and creatine as renal toxicity markers were measured, renal tissue was taken and prepared into paraffin blocks for immunohistochemical and histological studies, and then proteins were extracted to measure cytokine levels. The creatine concentration and BUN were measured using an autoanalyzer (Technicon RA-1000; Bayer, Tarrytown, N.Y.).

[10] = tested on: transplanted lung; experiment: Rat lung transplantation: H&E staining of alveolar tissue; format: in vivo, Sprague-Dawley rat
Experimental: as §1, §2, §3, §4

[11] = PERFADEX 50 mL + PEP1 5 mg as lung preservation solution

“EARPALLTSRLRFIPK (listed as Homo sapiens) [PEP 1, 16 aa peptide derived from Homo sapiens telomerase, position [611-626]]” was tested, and the “expression of inflammatory cells in BAL among the four groups” value [1] was “lowest expression”, the “MCP-1 level in renal tissue” value [2] was “significantly decreased; also recorded: significantly inhibited” and the “infiltration of macrophages into renal tissue (F4/80)” value [3] was “remarkably decreased; also recorded: inhibited”. The “infiltration of neutrophils into renal tissue (Gr-1)” value [3] was “remarkably decreased; also recorded: inhibited”, the “TUNEL-positive cells (renal apoptosis)” value [4] was “remarkably decreased” and the “TNF-α level in renal tissue” value [5] was “no significant difference”. For the same sequence, the “IL-6 level in renal tissue” value [6] was “significantly decreased; also recorded: significantly inhibited”, the “reperfusion edema (wet/dry weight ratio) compared with normal saline administered group” value [7] was “significantly (p<0.05) decreased” and the “reperfusion edema level among the four groups” value [7] was “lowest level”. For the same sequence, the flap survivability [8] was 58.88%±11.44%, the “blood urea nitrogen (BUN) level” value [9] was “significantly decreased” and the creatine level [9] was “significantly decreased”. The “preventing hemorrhage and maintaining the alveolar wall, 5 mg PEP1 rather than 50 mg PEP1” value ([10]; PEP1 added to PERFADEX 50 mL, 5 mg compared with 50 mg) was “more effective”, the “alveolar wall of transplanted lung (H&E)” value [10, 11] was “did not get harder” and the “hemorrhage in transplanted lung (H&E)” value [10, 11] was “rarely occurred”.
